52 compounds from ChEMBL document CHEMBL3758085, “Synthesis and cytotoxicity of thieno[2,3-b]quinoline-2-carboxamide and cycloalkyl[b]thieno[3,2-e]pyridine-2-carboxamide derivatives” (Bioorg Med Chem, 2016) can be followed below.

Holding throughout (assay type): functional
One assay relates to MDA-MB-231. Briefly: Antiproliferative activity against human MDA-MB-231 cells assessed as cell growth at 1 uM incubated for 3 days by 3H-thymidine incorporation assay relative to control. The settings on record: read-out: Activity.
The nature of assay [1]: Antiproliferative activity against human HCT116 cells assessed as cell growth at 1 uM incubated for 3 days by 3H-thymidine incorporation assay relative to control. The settings on record: HCT-116, read-out: Activity. On the technique in general: Uptake of a labelled nucleoside into DNA is a usual measure of proliferation.
The next assay relates to MDA-MB-468. In words: Antiproliferative activity against human MDA-MB-468 cells assessed as cell growth at 1 uM incubated for 3 days by 3H-thymidine incorporation assay relative to control. The settings on record: read-out: Activity.

Regarding `Cc1ccc2nc3sc(C(=O)Nc4ccccc4)cc3cc2c1`, the growth at 1 µM in the assay on MDA-MB-231 stood at 92%; in assay [1] it was 95%; with MDA-MB-468 it was 81%.
Regarding `O=c1c2sc3ncccc3c2ncn1-c1ccccc1`, the growth at 1 µM in the assay with MDA-MB-231 amounted to 107%; in assay [1] it was 96%; in the assay on MDA-MB-468, 101%.
On to `Nc1c(C(=O)Nc2cccc(Br)c2)sc2nc3c(cc12)CCC3`, for which the growth at 1 µM turned out to be 94% with MDA-MB-231, 93% in assay [1] and 53% in the assay on MDA-MB-468.
With `Cc1ccc2nc3sc(C(=O)Nc4cccnc4)cc3cc2c1`, the growth at 1 µM in the assay on MDA-MB-231 turned out to be 81%; in assay [1], 102%; with MDA-MB-468, 101%.
With `Cc1ccccc1NC(=O)c1sc2nc3c(cc2c1N)CCCC3`, the results for the growth at 1 µM (in the assay on MDA-MB-231; in assay [1]; in the assay with MDA-MB-468) were 70%, 84% and 53%, respectively.
Turning to `Nc1c(C(=O)Nc2cccc(Cl)c2)sc2nc3c(cc12)CCC3`, the results for the growth at 1 µM (in the assay on MDA-MB-231; in assay [1]; with MDA-MB-468) were 92%, 87% and 53%, respectively.
The corresponding values for `Nc1c(C(=O)Nc2cccc3ccccc23)sc2nc3c(cc12)CCCCC3` are 106%, 93% and 91%.
With `CCOc1ccc2nc3sc(C(=O)Nc4ccc(C(C)=O)cc4)c(N)c3cc2c1`, the figures for the growth at 1 µM (in the assay on MDA-MB-231; in assay [1]; in the assay with MDA-MB-468) were 97%, 96% and 87%, respectively.
As for `CCOc1ccc2nc3sc(C(=O)Nc4ccc(Cl)cc4)c(N)c3cc2c1`, the growth at 1 µM came out at 97% in the assay with MDA-MB-231, 100% in assay [1] and 93% with MDA-MB-468.
Consider `COc1ccc(OC)c(NC(=O)c2sc3nc4c(cc3c2N)CCCCC4)c1`, for which the figures for the growth at 1 µM (in the assay with MDA-MB-231; in assay [1]; in the assay with MDA-MB-468) were 117%, 98% and 94%, respectively.
As to `Cc1cccc(NC(=O)c2cc3cc4cc(C)ccc4nc3s2)c1`, the growth at 1 µM in the assay with MDA-MB-231 is 105%; in assay [1] it was 100%; in the assay on MDA-MB-468 it was 84%.
On to `Nc1c(C(=O)Nc2ccccc2C(F)(F)F)sc2nc3c(cc12)CCCCC3`, for which the results for the growth at 1 µM (in the assay on MDA-MB-231; in assay [1]; in the assay with MDA-MB-468) were 124%, 112% and 100%, respectively.
Taken in the same sequence, the figures for `Nc1c(C(=O)Nc2cccc(C(F)(F)F)c2)sc2nc3c(cc12)CCCC3` were 108%, 82% and 41%.
As to `Cc1ccccc1NC(=O)c1sc2nc3c(cc2c1N)CCCCC3`, the growth at 1 µM is 43% in the assay with MDA-MB-231, 66% in assay [1] and 25% in the assay on MDA-MB-468.
Take `CCCCOc1cccc(NC(=O)c2sc3nc4c(cc3c2N)CCCCC4)c1`: the growth at 1 µM came to 100% in the assay with MDA-MB-231, 97% in assay [1] and 53% in the assay with MDA-MB-468.
With `Nc1c(C(=O)Nc2cccc3ccccc23)sc2nc3c(cc12)CCC3`, the growth at 1 µM was determined as 80% in the assay on MDA-MB-231, 92% in assay [1] and 67% in the assay on MDA-MB-468.
On to `Nc1c(C(=O)Nc2cc(C(F)(F)F)ccc2Cl)sc2nc3c(cc12)CCCCC3`, for which the growth at 1 µM in the assay on MDA-MB-231 was determined as 105%; in assay [1] it was 98%; in the assay on MDA-MB-468, 106%.
Taken in the same sequence, the figures for `CC(=O)c1ccc(NC(=O)c2sc3nc4ccccc4cc3c2N)cc1` were 95%, 93% and 70%.
Turning to `Nc1c(C(=O)Nc2ccc(Cl)cc2)sc2nc3c(cc12)CCCCCC3`, the results for the growth at 1 µM (in the assay with MDA-MB-231; in assay [1]; in the assay on MDA-MB-468) were 117%, 94% and 82%, respectively.
For `Nc1c(C(=O)Nc2cccc(Br)c2)sc2nc3c(cc12)CCCC3`, the growth at 1 µM in the assay with MDA-MB-231 came out at 101%; in assay [1] it was 85%; in the assay on MDA-MB-468 it was 45%.
Take `Nc1c(C(=O)Nc2ccc3ccccc3c2)sc2nc3c(cc12)CCC3`: the figures for the growth at 1 µM (in the assay on MDA-MB-231; in assay [1]; in the assay on MDA-MB-468) were 81%, 94% and 64%, respectively.
`Cc1cc(C)c(NC(=O)c2sc3nc4c(cc3c2N)CCCC4)c(C)c1`: the growth at 1 µM with MDA-MB-231 was 97%; in assay [1], 101%; with MDA-MB-468, 93%.
As for `Cc1ccc2nc3sc(C(=O)Nc4ccccc4C)cc3cc2c1`, the values for the growth at 1 µM (with MDA-MB-231; in assay [1]; with MDA-MB-468) were 104%, 99% and 89%, respectively.
`Nc1c(C(=O)Nc2c(Cl)cccc2Cl)sc2nc3c(cc12)CCCC3`: the growth at 1 µM turned out to be 93% in the assay on MDA-MB-231, 100% in assay [1] and 82% in the assay on MDA-MB-468.
On to `Nc1c(C(=O)Nc2ccccc2Cl)sc2nc3c(cc12)CCCCC3`, for which the growth at 1 µM came out at 89% in the assay with MDA-MB-231, 92% in assay [1] and 73% with MDA-MB-468.
For `Nc1c(C(=O)Nc2cccc(C(F)(F)F)c2)sc2nc3c(cc12)CCC3`, the growth at 1 µM in the assay with MDA-MB-231 turned out to be 100%; in assay [1], 90%; with MDA-MB-468 it was 58%.
For the compound `Nc1c(C(=O)Nc2ccccc2F)sc2nc3c(cc12)CCCC3`, the growth at 1 µM was found to be 92% in the assay on MDA-MB-231, 84% in assay [1] and 48% with MDA-MB-468.
For `Nc1c(C(=O)Nc2ccc3ccccc3c2)sc2nc3c(cc12)CCCC3`, the growth at 1 µM with MDA-MB-231 worked out at 120%; in assay [1] it was 100%; in the assay on MDA-MB-468, 76%.
Turning to `Cc1ccc2cc3cc(C(=O)Nc4cnc5ccccc5c4)sc3nc2c1`, the figures for the growth at 1 µM (in the assay on MDA-MB-231; in assay [1]; in the assay on MDA-MB-468) were 97%, 99% and 87%, respectively.
For `Nc1c(C(=O)Nc2cccc(Br)c2)sc2nc3c(cc12)CCCCC3`, the growth at 1 µM with MDA-MB-231 turned out to be 92%; in assay [1], 83%; in the assay with MDA-MB-468 it was 45%.
For the compound `COc1ccc(OC)c(NC(=O)c2sc3nc4c(cc3c2N)CCCCCC4)c1`, the growth at 1 µM was determined as 131% in the assay on MDA-MB-231, 107% in assay [1] and 94% with MDA-MB-468.
`Nc1c(C(=O)Nc2ccc(Cl)c(Cl)c2)sc2nc3c(cc12)CCCCC3`: the growth at 1 µM in the assay on MDA-MB-231 came to 115%; in assay [1], 103%; in the assay on MDA-MB-468 it was 77%.
For `COc1ccc(NC(=O)c2sc3nc4c(cc3c2N)CCCC4)cc1`, the growth at 1 µM came out at 98% in the assay with MDA-MB-231, 99% in assay [1] and 84% in the assay with MDA-MB-468.
For the compound `Cc1ccc2nc3sc(C(=O)Nc4cccc(F)c4)cc3cc2c1`, the growth at 1 µM with MDA-MB-231 came out at 103%; in assay [1] it was 98%; in the assay with MDA-MB-468, 91%.
Take `CCc1cccc(C)c1NC(=O)c1sc2nc3c(cc2c1N)CCCC3`: the growth at 1 µM with MDA-MB-231 came out at 84%; in assay [1] it was 96%; with MDA-MB-468 it was 67%.
Take `Nc1c(C(=O)Nc2cccc(C(F)(F)F)c2)sc2nc3c(cc12)CCCCC3`: the figures for the growth at 1 µM (in the assay on MDA-MB-231; in assay [1]; with MDA-MB-468) were 94%, 108% and 92%, respectively.
As for `CCc1cccc(CC)c1NC(=O)c1sc2nc3c(cc2c1N)CCCC3`, the growth at 1 µM with MDA-MB-231 is 115%; in assay [1] it was 108%; with MDA-MB-468, 116%.
In the case of `Nc1c(C(=O)Nc2cccc([N+](=O)[O-])c2)sc2nc3c(cc12)CCCCC3`, the growth at 1 µM stood at 67% in the assay with MDA-MB-231, 51% in assay [1] and 18% in the assay on MDA-MB-468.
As for `COc1ccc(NC(=O)c2sc3nc4ccccc4cc3c2N)cc1`, the results for the growth at 1 µM (in the assay with MDA-MB-231; in assay [1]; with MDA-MB-468) were 101%, 97% and 68%, respectively.
Take `CC(=O)c1cccc(NC(=O)c2sc3nc4c(cc3c2N)CCCCCC4)c1`: the growth at 1 µM in the assay with MDA-MB-231 stood at 117%; in assay [1], 85%; with MDA-MB-468, 72%.
As for `COc1ccc(NC(=O)c2sc3nc4c(cc3c2N)CCCCCC4)cc1`, the growth at 1 µM with MDA-MB-231 was 107%; in assay [1], 106%; in the assay on MDA-MB-468 it was 84%.
As for `Nc1c(C(=O)Nc2ccccc2)sc2nc3c(cc12)CCC3`, the growth at 1 µM was 90% with MDA-MB-231, 94% in assay [1] and 76% in the assay with MDA-MB-468.
Taken in the same sequence, the figures for `Nc1c(C(=O)Nc2cccc([N+](=O)[O-])c2)sc2nc3c(cc12)CCC3` were 79%, 79% and 46%.
With `CCc1cccc(NC(=O)c2sc3nc4c(cc3c2N)CC(CC)CC4)c1` (stereo unspecified), the growth at 1 µM with MDA-MB-231 worked out at 73%; in assay [1], 73%; in the assay with MDA-MB-468 it was 12%.
As for `COc1ccc(NC(=O)c2sc3nc4c(cc3c2N)CCCCC4)cc1OC`, the growth at 1 µM in the assay on MDA-MB-231 stood at 114%; in assay [1], 98%; in the assay on MDA-MB-468 it was 77%.
As to `COc1ccc(NC(=O)c2sc3nc4c(cc3c2N)CCCCCC4)c(OC)c1`, the growth at 1 µM in the assay on MDA-MB-231 is 119%; in assay [1] it was 109%; in the assay on MDA-MB-468, 110%.
For the compound `CCc1ccccc1NC(=O)c1sc2nc3c(cc2c1N)CCCC3`, the figures for the growth at 1 µM (in the assay on MDA-MB-231; in assay [1]; in the assay on MDA-MB-468) were 89%, 86% and 63%, respectively.
As for `COc1ccc2nc3sc(C(=O)Nc4cc(Cl)ccc4OC)c(N)c3cc2c1`, the results for the growth at 1 µM (in the assay with MDA-MB-231; in assay [1]; with MDA-MB-468) were 86%, 100% and 104%, respectively.
With `COc1ccc(NC(=O)c2sc3nc4c(cc3c2N)CCCCCC4)cc1OC`, the growth at 1 µM is 102% with MDA-MB-231, 106% in assay [1] and 107% in the assay with MDA-MB-468.
Taken in the same sequence, the figures for `Nc1c(C(=O)Nc2cccc([N+](=O)[O-])c2)sc2nc3c(cc12)CCCC3` were 71%, 75% and 44%.
The corresponding values for `Nc1c(C(=O)Nc2ccc(F)cc2)sc2nc3c(cc12)CCCCCC3` are 100%, 82% and 65%.
For `Nc1c(C(=O)Nc2ccccc2Cl)sc2nc3c(c(C(F)(F)F)c12)CCCCCC3`, the growth at 1 µM in the assay on MDA-MB-231 was found to be 116%; in assay [1], 112%; in the assay on MDA-MB-468, 100%.
